Test results reported in patent US20210196720A1 (UROVANT SCIENCES GMBH, priority 2018, published 2021).
Like-named read-outs stand apart in the source and are kept apart here.

How the values were obtained:
[1] = in vivo
[2] = molecular target: β2-AR (Homo sapiens, UniProt P07550); assay: Competition binding assay, recombinant β2-AR
[3] = Phase 2b OAB study, trough concentrations; assay type: in vivo, human; settings: OAB patients
[4] = molecular target: T1, β3-AR (Homo sapiens, UniProt P13945); assay: Adenylyl cyclase functional assay in CHO cells stably expressing human β3-AR; assay type: cell-based; set-up: expressed in transfected cells
T1 sequence (P13945 whole entry): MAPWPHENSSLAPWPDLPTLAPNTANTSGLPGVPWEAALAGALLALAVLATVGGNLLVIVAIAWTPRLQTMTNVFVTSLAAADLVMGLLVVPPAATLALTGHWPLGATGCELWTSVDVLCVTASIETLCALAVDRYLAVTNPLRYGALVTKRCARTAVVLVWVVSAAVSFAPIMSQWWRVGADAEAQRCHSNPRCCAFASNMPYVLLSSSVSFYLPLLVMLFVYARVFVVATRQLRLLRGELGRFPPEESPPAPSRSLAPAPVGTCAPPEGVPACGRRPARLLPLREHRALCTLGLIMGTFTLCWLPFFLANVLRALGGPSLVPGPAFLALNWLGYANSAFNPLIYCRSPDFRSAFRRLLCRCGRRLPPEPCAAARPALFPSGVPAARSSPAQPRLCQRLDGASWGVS
Protocol: The degree of activation relative to a proven full agonist (isoproterenol) was measured along with the compound EC50.

[5] = Drug interaction: effect of conmed on vibegron PK; assay type: in vivo, human; settings: for half-life / AUC / Cmax: human, oral; for half-life: read-out: GM t1/2 (converted); for AUC / Cmax: plasma
Source text: However, these interactions are not expected to be clinically significant.

[6] = Renal impairment PK, single 100 mg; set-up: AUC0-inf GMR vs healthy / Cmax GMR vs healthy: unit not given beside the values;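 also: pharmacokinetic parameters in patients with renal impairment of differing severity, statistically compared against matched healthy subjects as controls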
[7] = Maximum MA4 heart rate, multiple-dose Phase 1 study, day 14; assay type: in vivo, human
Protocol: More intensive assessments of heart rate and blood pressure were performed in healthy volunteers in several Phase 1 studies. […] Doses ranged from 25 to 400 mg once daily for 7 to 28 days depending on the cohort. Least squares mean and 90% confidence intervals of maximum change from baseline in moving average of heart rate over 4 hours postdose (MA4 HR) are presented in Table 14.

[8] = molecular target: T1, β3-AR; assay: biochemical
[9] = Capsule vs tablet single-dose crossover PK, 150 mg, healthy males; assay type: in vivo; settings: male, human, plasma, oral
Source text: Tmax and the apparent terminal t1/2 were also similar between the two formulations.

[10] = Moderate hepatic impairment PK, single 100 mg; assay type: in vivo, human; settings: for half-life: read-out: Apparent terminal t1/2 (converted)
[11] = molecular target: CYP3A4 (Homo sapiens, UniProt P08684); assay: In vitro CYP metabolism; assay type: in vitro ADME
Sequence of CYP3A4 (P08684 whole entry): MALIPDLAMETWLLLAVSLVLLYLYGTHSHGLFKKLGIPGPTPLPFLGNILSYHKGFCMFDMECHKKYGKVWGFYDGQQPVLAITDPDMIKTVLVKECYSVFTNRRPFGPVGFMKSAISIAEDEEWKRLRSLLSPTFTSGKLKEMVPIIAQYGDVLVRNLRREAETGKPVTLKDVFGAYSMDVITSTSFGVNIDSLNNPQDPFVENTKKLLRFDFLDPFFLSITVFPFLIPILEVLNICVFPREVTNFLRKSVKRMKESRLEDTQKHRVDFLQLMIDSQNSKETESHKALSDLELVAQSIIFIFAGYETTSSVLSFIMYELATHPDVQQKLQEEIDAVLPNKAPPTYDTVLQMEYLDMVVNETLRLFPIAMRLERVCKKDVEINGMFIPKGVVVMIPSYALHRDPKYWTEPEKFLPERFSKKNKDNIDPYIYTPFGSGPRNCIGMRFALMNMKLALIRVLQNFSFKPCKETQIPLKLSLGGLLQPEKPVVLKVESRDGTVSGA

[12] = molecular target: CYP2D6 (Homo sapiens, UniProt P10635); settings: Rutman et al. 2019; cited from earlier work
Sequence of CYP2D6 (P10635 whole entry): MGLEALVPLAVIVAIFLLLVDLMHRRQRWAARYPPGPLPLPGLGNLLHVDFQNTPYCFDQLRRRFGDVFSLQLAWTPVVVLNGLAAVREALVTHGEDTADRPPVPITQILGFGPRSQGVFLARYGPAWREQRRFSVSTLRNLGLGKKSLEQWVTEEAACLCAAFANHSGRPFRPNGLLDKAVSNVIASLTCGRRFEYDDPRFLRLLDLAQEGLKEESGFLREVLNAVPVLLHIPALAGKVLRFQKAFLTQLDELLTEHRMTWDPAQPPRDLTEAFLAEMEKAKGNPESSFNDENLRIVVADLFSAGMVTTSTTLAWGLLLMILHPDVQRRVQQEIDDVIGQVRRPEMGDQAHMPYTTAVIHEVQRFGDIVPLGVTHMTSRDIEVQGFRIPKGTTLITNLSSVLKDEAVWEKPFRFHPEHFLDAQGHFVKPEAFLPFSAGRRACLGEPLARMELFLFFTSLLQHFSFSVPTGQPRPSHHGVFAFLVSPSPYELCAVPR

[13] = human, in vivo
Source text: The accumulation potential of circulating metabolites in plasma was not estimated due to insufficient data from later time points to enable estimation of half-life.

[14] = 100 mg QD + tolterodine ER 4 mg QD
[15] = 100 mg single + diltiazem ER 240 mg QD
[16] = 100 mg single + ketoconazole 200 mg every 12 hours
[17] = 100 mg, 100 mg QD alone (tolterodine study)
[18] = 100 mg, 100 mg single, alone (diltiazem study)
[19] = 100 mg, 100 mg single, alone (ketoconazole study)
[20] = 150 mg QD + tolterodine ER 4 mg QD
[21] = 150 mg, 150 mg QD alone (tolterodine study)
[22] = with multiple doses of diltiazem
[23] = human, plasma, oral, 100 mg, healthy matched controls
[24] = human, plasma, oral, 100 mg, moderate hepatic impairment

Sequence of β2-AR (P07550 whole entry): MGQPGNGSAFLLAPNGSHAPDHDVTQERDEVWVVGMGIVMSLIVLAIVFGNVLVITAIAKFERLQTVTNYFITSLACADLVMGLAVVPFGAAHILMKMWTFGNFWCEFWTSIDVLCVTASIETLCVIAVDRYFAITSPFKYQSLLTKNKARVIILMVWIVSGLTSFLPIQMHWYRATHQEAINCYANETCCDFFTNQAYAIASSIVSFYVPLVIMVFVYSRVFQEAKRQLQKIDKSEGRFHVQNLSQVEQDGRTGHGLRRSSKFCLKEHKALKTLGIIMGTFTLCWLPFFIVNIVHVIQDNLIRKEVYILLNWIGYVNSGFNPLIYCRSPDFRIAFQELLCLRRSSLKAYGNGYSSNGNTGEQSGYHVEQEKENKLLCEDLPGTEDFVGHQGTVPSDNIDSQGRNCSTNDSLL

O=C(Nc1ccc(C[C@@H]2CC[C@H]([C@H](O)c3ccccc3)N2)cc1)[C@@H]1CCc2nccc(=O)n21 [Vibegron, (6S)-N-[4-[[(2S,5R)-5-[(R)-hydroxy(phenyl)methyl]pyrrolidin-2-yl]methyl]phenyl]-4-oxo-7,8-dihydro-6H-pyrrolo[1,2-a]pyrimidine-6-carboxamide]
effect on QTc or blood pressure [1]: no clinically meaningful effect | binding to β2-AR [2]: does not bind | mean (±SD) Ctrough ([3]; 50 mg QD): 27.4 (±18.3) ng/mL | mean (±SD) Ctrough ([3]; 100 mg QD): 73.6 (±65.5) ng/mL | EC50 [4]: 1.1 nM | EC50 ([4]; 40% human serum): 1.7 nM | half-life ([5]; in vivo, 100 mg, vibegron alone): 75 h | half-life ([5]; in vivo, with diltiazem): 75.4 h | half-life ([5]; in vivo, with ketoconazole): 80.2 h | AUC [5, 14]: 1790 ng·h/mL | Cmax [5, 14]: 163 ng/mL | AUC [5, 15]: 2170 ng·h/mL | Cmax [5, 15]: 167 ng/mL | AUC [5, 16]: 2850 ng·h/mL | Cmax [5, 16]: 251 ng/mL | AUC [5, 17]: 1660 ng·h/mL | Cmax [5, 17]: 158 ng/mL | AUC [5, 18]: 1330 ng·h/mL | Cmax [5, 18]: 99.8 ng/mL | AUC [5, 19]: 1370 ng·h/mL | Cmax [5, 19]: 113 ng/mL | AUC [5, 20]: 3100 ng·h/mL | Cmax [5, 20]: 304 ng/mL | AUC [5, 21]: 2780 ng·h/mL | Cmax [5, 21]: 269 ng/mL | effect of tolterodine ER 4 mg on pharmacokinetics of vibegron ([5]; in vivo): no effect | higher exposure ([5]; with a potent CYP3A/P-gp inhibitor): ~2 fold | GM AUC0-inf increase [5, 22]: 63% | GM Cmax increase [5, 22]: 68% | AUC(0-inf) ([6]; healthy matched controls): 1540 ng·h/mL | Apparent terminal t1/2 ([6]; healthy matched controls): 98.8 h | CL/F ([6]; healthy matched controls): 64.9 L/h | CLR ([6]; healthy matched controls): 10.4 L/h | Fe[urine]48 hr ([6]; healthy matched controls): 7.9% | AUC0-inf GMR vs healthy ([6]; mild renal impairment): 1.49 | AUC0-inf higher than healthy controls ([6]; mild renal impairment): 49% | AUC(0-inf) ([6]; mild renal impairment): 2290 ng·h/mL | Apparent terminal t1/2 ([6]; mild renal impairment): 96.2 h | CL/F ([6]; mild renal impairment): 43.6 L/h | CLR ([6]; mild renal impairment): 6.3 L/h | CLR reduction vs healthy controls ([6]; mild renal impairment): 39% | Cmax ([6]; mild renal impairment): 210 ng/mL | Cmax GMR vs healthy ([6]; mild renal impairment): 1.96 | Cmax higher than healthy controls ([6]; mild renal impairment): 96% | Fe[urine]48 hr ([6]; mild renal impairment): 8.5% | Tmax ([6]; mild renal impairment): 1.0 h | AUC0-inf GMR vs healthy ([6]; moderate renal impairment): 2.06 | AUC0-inf higher than healthy controls ([6]; moderate renal impairment): 106% | AUC(0-inf) ([6]; moderate renal impairment): 3170 ng·h/mL | Apparent terminal t1/2 ([6]; moderate renal impairment): 108 h | CL/F ([6]; moderate renal impairment): 31.5 L/h | CLR ([6]; moderate renal impairment): 3.6 L/h | CLR reduction vs healthy controls ([6]; moderate renal impairment): 65% | Cmax ([6]; moderate renal impairment): 180 ng/mL | Cmax GMR vs healthy ([6]; moderate renal impairment): 1.68 | Cmax higher than healthy controls ([6]; moderate renal impairment): 68% | Fe[urine]48 hr ([6]; moderate renal impairment): 5.5% | Tmax ([6]; moderate renal impairment): 1.3 h | mean increase in AUC vs normal renal function ([6]; moderate renal impairment): 1.6 fold | AUC0-inf GMR vs healthy ([6]; severe renal impairment): 1.83 | AUC0-inf higher than healthy controls ([6]; severe renal impairment): 83% | AUC(0-inf) ([6]; severe renal impairment): 2820 ng·h/mL | CL/F ([6]; severe renal impairment): 35.5 L/h | CLR ([6]; severe renal impairment): 1.9 L/h | CLR reduction vs healthy controls ([6]; severe renal impairment): 82% | Cmax GMR vs healthy ([6]; severe renal impairment): 1.42 | Cmax higher than healthy controls ([6]; severe renal impairment): 42% | Fe[urine]48 hr ([6]; severe renal impairment): 2.1% | Tmax ([6]; severe renal impairment): 0.5 h | Maximum MA4 HR (LS mean) ([7]; 25 mg): 1.47 bpm | Maximum MA4 HR, difference from placebo ([7]; 25 mg): −1.60 bpm | Maximum MA4 HR (LS mean) ([7]; 50 mg): 1.50 bpm | Maximum MA4 HR, difference from placebo ([7]; 50 mg): −1.57 bpm | Maximum MA4 HR (LS mean) ([7]; 100 mg): 3.28 bpm | Maximum MA4 HR (LS mean) ([7]; 150 mg): 3.17 bpm | Maximum MA4 HR, difference from placebo ([7]; 150 mg): 0.10 bpm | Maximum MA4 HR (LS mean) ([7]; 200 mg): 5.67 bpm | Maximum MA4 HR, difference from placebo ([7]; 200 mg): 2.60 bpm | Maximum MA4 HR (LS mean) ([7]; 300 mg): 9.06 bpm | Maximum MA4 HR, difference from placebo ([7]; 300 mg): 5.98 bpm | Maximum MA4 HR (LS mean) ([7]; 400 mg): 10.33 bpm | Maximum MA4 HR, difference from placebo ([7]; 400 mg): 7.26 bpm | IC50 [8]: 193 nM | AUC(0-inf) ([9]; 1 × 150 mg capsule): 2840 ng·h/mL | Cmax ([9]; 1 × 150 mg capsule): 237 ng/mL | AUC(0-inf) ([9]; 3 × 50 mg tablets): 2660 ng·h/mL | Cmax ([9]; 3 × 50 mg tablets): 213 ng/mL | CL/F ([10]; healthy matched controls): 68.3 L/h | AUC(0-inf) [10, 23]: 1440 ng·h/mL | Cmax [10, 23]: 125 ng/mL | half-life [10, 23]: 92.5 h | AUC(0-inf) [10, 24]: 1820 ng·h/mL | Cmax [10, 24]: 168 ng/mL | Tmax [10, 24]: 1 h | half-life [10, 24]: 94.5 h | CL/F ([10]; moderate hepatic impairment): 56.0 L/h | CYP responsible for in vitro metabolism [11]: CYP3A4 is the predominant CYP responsible for in vitro metabolism | CYP2D6 inhibition [12]: does not inhibit CYP2D6 | dose recovered in feces [13]: approximately 59% | dose recovered in urine [13]: ~20% | total recovery of radioactivity in excreta [13]: 79% | share of plasma radioactivity ([13]; 2 hr): ~78% | share of plasma radioactivity ([13]; 4 hr): ~73%
